The text below walks through data of patent publication US5463093A, “Palladium complexes and methods for using same in the treatment of tumors or Psoriasis” (priority 1993, dated 1995).

“Also recorded” adds a separate entry of the source.

Series [1] relates to DNA (CT). Briefly: Cyclic voltammetry of charge interactions with DNA. The class given is biochemical. As to the method: 16, 1993. […] 18, 1993. […] 30, 1993.
The structures of these complexes, as shown in the Examples, were also studied by Fourier transform-infrared spectroscopy (FTIR).
The working electrode used a smile mercury drop, the reference electrode was Ag/AgCl wire in KCl solution housed behind a porous Vycor frit and the counter electrode was Ag/AgCl wire. A reversing scan was performed from either 0 or -0.3 Volt to -1.0 Volts at 20 μA or 100 μA sensitivity and a scan rate of 100 mv/sec. Before the reductase sample was run, 9.0 ml of acetate buffer background electrolyte at pH 5.0 was purged for 8 minutes by vigorous bubbling of nitrogen. The addition of each sample was followed by two minutes of nitrogen purging.
In this example, 1.0 ml of a 5 mg/ml DNA solution was added to 250 μl of a 0.12μ Poly-RC solution. […] This scan was run from 0 to -1.0 volts at 20 μA sensitivity.
The amount of energy transferred is calculated from the shift in the voltage and current coordinates in terms of the Nernst relation. This interpretation of shifts in electro-potential curves follows the interpretations of electrochemistry literature, e.g., Maloy, "Factors Affecting the Shape of Current Potential Curves," I. Chem. Ed., 60(4):285-289 (April 1983); Rieger, Electrochemistry, Prentice Hall (1987); and Riley et al., Principles of Electroanalytical Methods, John Wiley (1987).
FIG. 6A was run from 0 to -1.0 volts at 100 μA sensitivity, while Rigure 6B was run from -0.3 to -1.0 volts at 20 μA sensitivity.
Both scans were run from -0.3 to -1.0 volts at 20 μA sensitivity. […] Biochem, 51(1 and 2):221 (August 1993).

Series [2] in a line: UV spectroscopy after air oxidation of the solution. The class given is physicochemical. To be noted: ninety days of air oxidation of the solution; UV spectra. From the text: There is no UV peak. FIGS. 2B and 2C show ultraviolet spectra of Pd-Lipoic Acid Complex (Poly-RC) with a concentration of 2×10^-6 M in FIG. 2B and 10^-6 M in FIG. 2C. FIGS. 2D and 2E show ultraviolet absorbance spectra of oxidized Poly RC after ninety days of air oxidation of the solution (experiment conducted Jun 11, 1993). In FIGS. 2D and 2E, the concentration is 0.00012 M. In FIG. 2D, the spectrum is ended at 400.0 nm and 0.542 A, and a reference peak is at 289.0 nm and 0.75 A. In FIG. 2E, the spectrum is ended at 550.0 nm and 0.036 A, and a reference peak is at 396.0 nm and 0.553 A. FIG. 2F illustrates the absorbance spectra of Pd-lipoic acid complexes at varying ratios of palladium to lipoic acid at a Pd concentration of 5×10^-5 M. The ratios are 1 Pd: 1 lipoic=n 1, 1 Pd: 2 lipoic=n 2, and 1 Pd: 3 lipoic=n 3. […] The reference peak of B12 is at 361.2 nm and 0.042 A and the reference peak of B12 Ac is at 358.6 nm and 0.044 A.
After ninety days of air oxidation of the Poly-RC solution, an ultraviolet spectra was again obtained on the Shimadzu UV spectrophotometer. In both instances, a 1.2×10^-4 μ solution was employed. […] FIG. 2E illustrates the visible range of the Poly RC, in which range an inflection is estimated as occurring at 396 nm. These spectra showing a shift from the fresh Poly RC solution are consistent with the view that Poly RC is a redox complex.

Series [3] deals with tumors. Briefly: Compassionate IND studies in tumor patients. The class given is in vivo, human. To be noted: for liquefaction of carcinomas, adenocarcinomas, melanomas and metastases / shrinkage of carcinomas, adenocarcinomas, melanomas and metastases: patients. The text has this:
(§1) Data reporting therapeutic effects are best presented by independent institutional protocols. Compassionate Investigational New Drug studies in humans involving administration of the novel polynucleotide reductases were begun in November of 1992 and are presently ongoing.
However, the precise route of administration, dosage and frequency of administration is individualized for each patient and can vary over a wide range depending on the particular disease state being treated, the condition of the patient and the like.

For series [4], the system named is metastatic lesions to the liver. To be noted: patients with metastatic lesions to the liver.
Text: as §1

Series [5] relates to Brewer's yeast (Saccharomyces cerevisae) / Baker's yeast. Description: Induction of new yeast form (cell morphology, phase microscopy). In kind it is cell-based. The note with it: Poly-R2 10^-7 M, 30 minutes at 28° C. As to the method: Brewer's yeast (Saccharomyces cerevisae) was cultured in 2.0% malt extract and 2.0% sucrose.
The yeast was incubated for 30 minutes at 28° C. and examined under phase microscopy.

With palladium-lipoic acid complex [Poly-RC], the “charge interaction of Poly-RC with DNA (voltammetric wave)” value in series [1] (250 μl of 0.12 M Poly-RC + 1.0 ml DNA 5 mg/ml, 0 to -1.0 volts, 20 μA) was “double peaked catalytic wave of Poly-RC was altered on the addition of DNA; also recorded: current had dropped and voltage had moved in the oxidative direction; also recorded: DNA oxidizes Poly-RC”. In addition, the “redox state after air oxidation” value in series [2] is given as “in the oxidative state”. Moreover, in series [3], the “liquefaction of carcinomas, adenocarcinomas, melanomas and metastases” value was “developing non-hemorrhagic central liquefaction”; the “shrinkage of carcinomas, adenocarcinomas, melanomas and metastases” value is “shrinking”.

For the substance “thiamine salt of a palladium-lipoic acid complex [Poly-R2]”, in series [1] (Poly-R2 compared with Poly-RC), the “magnitude of voltammetric shifts with DNA” value is recorded as “greater magnitude”. In addition, the “reduction of DNA” value in series [1] (cyclic voltammetry) was “can reduce both DNA and RNA”. Further, in series [4], the “enlargement of the liver” value is given as “no longer palpable” and the serum albumen levels entry is recorded as “return to normal”. For the same substance, in series [5] (FIG. 8B), the “loss of lipid droplets during giantization of yeast cells” value is reported as “lipid droplets are lost from the cell; also recorded: lipid drops are lost from the cell”. Further, the “altered cell morphology of yeast cells” value in series [5] (phase microscopy) is recorded as “Large fiat cells were one kind of new variety; also recorded: altered cell morphology of yeast cells”. Moreover, in series [3], the “liquefaction of carcinomas, adenocarcinomas, melanomas and metastases” value is listed as “developing non-hemorrhagic central liquefaction”; the “shrinkage of carcinomas, adenocarcinomas, melanomas and metastases” value is “shrinking”. Further, the “reduction in tumor size” value in series [3] (terminally ill patients, objective criteria) was “reduction in tumor size by objective criteria”. Besides, the “relief of symptoms caused by various cancers” value in series [3] (terminally ill patients, subjective) is given as “subjective relief of symptoms”.
